Here are results for 34 molecules from ChEMBL document CHEMBL1146955, “A novel series of arylsulfonylthiophene-2-carboxamidine inhibitors of the complement component C1s” (Bioorg Med Chem Lett, 2006).

A value given as a limit tells only on which side of the number the result lay.

In one assay the target is T1, Complement C1s subcomponent (Homo sapiens, UniProt P09871).
T1 sequence (P09871 whole entry): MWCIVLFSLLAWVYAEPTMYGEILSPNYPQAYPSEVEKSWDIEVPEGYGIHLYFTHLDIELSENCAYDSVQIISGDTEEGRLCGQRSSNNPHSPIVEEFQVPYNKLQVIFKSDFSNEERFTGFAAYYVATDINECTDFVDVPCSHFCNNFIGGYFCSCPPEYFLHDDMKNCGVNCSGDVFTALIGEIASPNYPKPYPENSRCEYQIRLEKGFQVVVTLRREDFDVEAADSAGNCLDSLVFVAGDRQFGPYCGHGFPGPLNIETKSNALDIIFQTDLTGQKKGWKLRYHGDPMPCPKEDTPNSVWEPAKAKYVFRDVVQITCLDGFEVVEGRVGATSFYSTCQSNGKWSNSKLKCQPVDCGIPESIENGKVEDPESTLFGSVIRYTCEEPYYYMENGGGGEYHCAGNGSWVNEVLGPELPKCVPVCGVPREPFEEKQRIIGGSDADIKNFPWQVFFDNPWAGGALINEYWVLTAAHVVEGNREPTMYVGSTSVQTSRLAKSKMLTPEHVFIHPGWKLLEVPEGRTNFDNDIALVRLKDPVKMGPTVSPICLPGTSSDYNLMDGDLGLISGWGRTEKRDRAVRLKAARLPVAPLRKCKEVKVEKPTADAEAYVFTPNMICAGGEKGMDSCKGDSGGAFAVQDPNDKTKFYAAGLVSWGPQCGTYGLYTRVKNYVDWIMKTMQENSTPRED
The assay is described as follows: Inhibition of C1S.
Molecule `CSc1sc(C(=N)N)cc1S(=O)(=O)c1ccc2c(c1)ncn2Cc1ccccn1` registered a Ki of 0.58 µM.

`CSc1sc(C(=N)N)cc1S(=O)(=O)c1cc(Br)c2c(c1)ncn2[C@H](C)c1ccccc1`: the Ki worked out at 0.38 µM.

Molecule `CSc1sc(C(=N)N)cc1S(=O)(=O)c1ccc2c(c1)ncn2Cc1ccccc1` displayed a Ki of 0.4 µM.

On to `CSc1sc(C(=N)N)cc1S(=O)(=O)c1cc(Br)c2nc[nH]c2c1`, for which the affinity corresponds to a Ki of 0.4 µM.

As to `CSc1sc(C(=N)N)cc1S(=O)(=O)c1cc(Br)c2ncn(Cc3c(Cl)cccc3Cl)c2c1`, the Ki is 0.16 µM. For the molecule `CSc1sc(C(=N)N)cc1S(=O)(=O)c1cc(Br)c2ncn(-c3ccccc3)c2c1`, the Ki worked out at 0.18 µM. Still for that read-out and setting: for `CSc1sc(C(=N)N)cc1S(=O)(=O)c1ccoc1C` the value was 1.79 µM; for `CSc1sc(C(=N)N)cc1S(=O)(=O)c1cc(Br)c2ncn(CC=C(C)C)c2c1`, 0.2 µM; for `CSc1sc(C(=N)N)cc1S(=O)(=O)c1cc(Br)c2ncn(Cc3cc(F)ccc3F)c2c1`, 0.24 µM. Take `CSc1sc(C(=N)N)cc1S(=O)(=O)c1cc(Br)c2c(c1)ncn2Cc1cc(F)ccc1F`: the Ki worked out at 0.01 µM.

Consider `CSc1sc(C(=N)N)cc1S(=O)(=O)c1cc(Br)c2ncn(Cc3ccccc3)c2c1`, for which the Ki is 0.4 µM. Still for that read-out and setting: the result for `CSc1sc(C(=N)N)cc1S(=O)(=O)c1cc(Cl)c2c(c1)ncn2Cc1c(F)cccc1F` reads 0.1 µM. For `CSc1sc(C(=N)N)cc1S(=O)(=O)c1cc(Cl)c2ncn(Cc3c(F)cccc3F)c2c1`, the Ki stood at 0.1 µM.

Molecule `CSc1sc(C(=N)N)cc1S(=O)(=O)c1nccn1C` yielded a Ki of 1.88 µM.

For `CSc1sc(C(=N)N)cc1S(=O)(=O)c1cc(Br)c2c(c1)ncn2Cc1ccccc1`, the Ki was determined as 0.03 µM. Turning to `CSc1sc(C(=N)N)cc1S(=O)(=O)c1cc(Br)c2c(c1)ncn2Cc1cc([N+](=O)[O-])ccc1F`, the Ki worked out at 0.03 µM. Regarding `CSc1sc(C(=N)N)cc1S(=O)(=O)c1cc(Br)c2c(c1)ncn2Cc1c(Cl)cccc1Cl`, the Ki is 0.02 µM.

`CSc1sc(C(=N)N)cc1S(=O)(=O)c1ccccn1` came in with a Ki of 2.29 µM. Consider `CSc1sc(C(=N)N)cc1S(=O)(=O)Cc1ccccc1`, for which affinity was put at a Ki of 2 µM.

`CSc1sc(C(=N)N)cc1S(=O)(=O)c1cc(Br)c2ncn(Cc3cc([N+](=O)[O-])ccc3F)c2c1` had a Ki of 0.17 µM. Still for that read-out and setting: for `CSc1sc(C(=N)N)cc1S(=O)(=O)c1ccc2ccccc2c1` the value was 0.41 µM; for `CSc1sc(C(=N)N)cc1S(=O)(=O)c1cc(Br)c2ncn(C)c2c1`, 0.33 µM.

`CSc1sc(C(=N)N)cc1S(=O)(=O)c1cc(Br)c2ncn(Cc3c(F)cccc3F)c2c1` returned an inhibitory constant (Ki) of 0.17 µM. As for `CSc1sc(C(=N)N)cc1S(=O)(=O)c1ccc2ncn(Cc3ccccc3)c2c1`, the Ki was 0.42 µM. In the case of `C=CCn1cnc2cc(S(=O)(=O)c3cc(C(=N)N)sc3SC)cc(Br)c21`, the affinity corresponds to a Ki of 0.07 µM.

Regarding `CSc1sc(C(=N)N)cc1S(=O)(=O)c1cc(Br)c2c(c1)ncn2[C@@H](C)c1ccccc1`, the Ki worked out at 0.33 µM. For the molecule `CSc1sc(C(=N)N)cc1S(=O)(=O)c1cc(Br)c2c(c1)ncn2CC=C(C)C`, the Ki was 0.05 µM. Molecule `CSc1sc(C(=N)N)cc1S(=O)(=O)C(C)C` had a Ki of 11 µM. For `C=CCn1cnc2c(Br)cc(S(=O)(=O)c3cc(C(=N)N)sc3SC)cc21`, the Ki came out at 0.21 µM.

`CSc1sc(C(=N)N)cc1S(=O)(=O)c1cc(Br)c2c(c1)ncn2Cc1c(F)cccc1F` returned a Ki of 0.04 µM.

As for `CSc1sc(C(=N)N)cc1S(=O)(=O)c1cc(Br)c2c(c1)ncn2-c1ccccc1`, the Ki was 0.31 µM. As to `CSc1sc(C(=N)N)cc1S(=O)(=O)c1cc(Br)c2c(c1)ncn2C`, the affinity, expressed as Ki, was 0.4 µM. In the case of `CSc1sc(C(=N)N)cc1S(=O)(=O)c1ccccc1`, the inhibitory constant (Ki) is 0.75 µM.

Consider `CSc1sc(C(=N)N)cc1S(=O)(=O)c1cccs1`, for which affinity was put at a Ki of 2.24 µM.

The next assay deals with Plasminogen (Homo sapiens, UniProt P00747). The assay is described as follows: Inhibition of plasmin.
Chain of Plasminogen (P00747 97-580 limits assumed): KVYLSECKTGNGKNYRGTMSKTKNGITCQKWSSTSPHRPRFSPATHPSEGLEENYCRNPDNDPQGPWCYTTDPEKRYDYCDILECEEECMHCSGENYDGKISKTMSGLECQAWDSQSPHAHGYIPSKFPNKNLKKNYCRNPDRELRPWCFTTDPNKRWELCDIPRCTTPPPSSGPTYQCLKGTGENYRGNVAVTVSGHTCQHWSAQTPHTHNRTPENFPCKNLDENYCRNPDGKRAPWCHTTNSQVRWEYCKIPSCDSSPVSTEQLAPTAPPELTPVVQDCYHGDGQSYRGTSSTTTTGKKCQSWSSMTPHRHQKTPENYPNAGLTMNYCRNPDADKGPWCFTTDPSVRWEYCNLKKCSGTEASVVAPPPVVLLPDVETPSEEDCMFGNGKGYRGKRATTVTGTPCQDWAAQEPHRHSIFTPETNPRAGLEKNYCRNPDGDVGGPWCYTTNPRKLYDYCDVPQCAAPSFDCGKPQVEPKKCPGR
Chain of Plasminogen (P00747 581-810 limits assumed): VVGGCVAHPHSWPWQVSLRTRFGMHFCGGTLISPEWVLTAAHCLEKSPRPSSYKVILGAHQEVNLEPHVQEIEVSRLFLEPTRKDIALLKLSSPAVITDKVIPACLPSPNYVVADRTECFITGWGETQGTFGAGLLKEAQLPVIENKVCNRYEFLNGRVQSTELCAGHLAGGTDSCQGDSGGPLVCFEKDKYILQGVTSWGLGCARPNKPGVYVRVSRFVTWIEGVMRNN
For `CSc1sc(C(=N)N)cc1S(=O)(=O)c1cc(Br)c2c(c1)ncn2Cc1cc(F)ccc1F`, the Ki was > 13 µM.

The target in the next assay is Urokinase-type plasminogen activator (Homo sapiens, UniProt P00749). The assay is described as follows: Inhibition of uPA.
For the molecule `CSc1sc(C(=N)N)cc1S(=O)(=O)c1cc(Br)c2c(c1)ncn2Cc1cc(F)ccc1F`, the Ki was > 10 µM.

For a further assay, the target named is Coagulation factor X (Homo sapiens, UniProt P00742). In words: Inhibition of F10a.
Chain of Coagulation factor X (P00742 41-179 limits assumed): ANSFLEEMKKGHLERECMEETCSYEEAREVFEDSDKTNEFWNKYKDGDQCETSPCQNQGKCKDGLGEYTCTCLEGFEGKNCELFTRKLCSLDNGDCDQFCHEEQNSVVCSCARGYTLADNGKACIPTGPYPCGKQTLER
Chain of Coagulation factor X (P00742 235-488 limits assumed): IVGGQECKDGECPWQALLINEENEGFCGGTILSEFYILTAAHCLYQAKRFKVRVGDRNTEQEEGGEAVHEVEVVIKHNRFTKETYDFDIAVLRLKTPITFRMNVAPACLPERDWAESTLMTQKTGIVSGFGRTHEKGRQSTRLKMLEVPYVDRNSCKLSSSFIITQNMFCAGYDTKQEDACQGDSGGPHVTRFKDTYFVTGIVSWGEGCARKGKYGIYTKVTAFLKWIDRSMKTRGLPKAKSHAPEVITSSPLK
`CSc1sc(C(=N)N)cc1S(=O)(=O)c1cc(Br)c2c(c1)ncn2Cc1cc(F)ccc1F` came in with a Ki of 11.4 µM.

The target of a further assay is Tissue-type plasminogen activator (Homo sapiens, UniProt P00750). In words: Inhibition of tPA.
Chain of Tissue-type plasminogen activator (P00750 whole entry): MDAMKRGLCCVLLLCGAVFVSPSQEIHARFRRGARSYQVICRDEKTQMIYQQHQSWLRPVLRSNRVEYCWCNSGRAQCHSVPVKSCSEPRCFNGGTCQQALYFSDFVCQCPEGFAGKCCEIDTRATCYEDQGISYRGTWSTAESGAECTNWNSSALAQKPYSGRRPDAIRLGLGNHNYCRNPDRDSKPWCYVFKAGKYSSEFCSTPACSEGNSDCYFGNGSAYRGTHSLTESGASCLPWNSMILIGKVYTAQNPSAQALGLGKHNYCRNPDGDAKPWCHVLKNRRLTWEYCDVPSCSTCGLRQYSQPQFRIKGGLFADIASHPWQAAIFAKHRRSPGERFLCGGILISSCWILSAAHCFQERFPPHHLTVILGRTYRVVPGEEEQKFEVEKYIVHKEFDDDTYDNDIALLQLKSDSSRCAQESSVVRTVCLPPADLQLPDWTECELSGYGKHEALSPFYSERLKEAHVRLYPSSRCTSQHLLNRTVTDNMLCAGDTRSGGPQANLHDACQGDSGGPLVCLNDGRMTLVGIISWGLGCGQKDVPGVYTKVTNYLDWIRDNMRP
As to `CSc1sc(C(=N)N)cc1S(=O)(=O)c1cc(Br)c2c(c1)ncn2Cc1cc(F)ccc1F`, the Ki is > 10 µM.

For another assay, the target named is Prothrombin (Homo sapiens, UniProt P00734). In words: Inhibition of thrombin.
Turning to `CSc1sc(C(=N)N)cc1S(=O)(=O)c1cc(Br)c2c(c1)ncn2Cc1cc(F)ccc1F`, the Ki is > 15 µM.

In the next assay the target is Trypsin (Homo sapiens, UniProt P07477+P07478+P35030). The assay is described as follows: Inhibition of trypsin. Type of assay: protein assay.
`CSc1sc(C(=N)N)cc1S(=O)(=O)c1cc(Br)c2c(c1)ncn2Cc1cc(F)ccc1F`: the Ki turned out to be 1.4 µM.

The Ki is a measure of affinity in units of concentration, obtained from inhibition or displacement. High values mean lower affinity, low ones higher affinity.
